Source: BindingDB's records for doi:10.1021/jm00079a004 (National Institute of Diabetes and Digestive and Kidney …, 1992)

Target: Sigma non-opioid intracellular receptor 1 (Cavia porcellus)
Test: Displacement of [3H]-(+) -3PPP from sigma receptor in guinea pig brain membranes

| SMILES | Ki [nM] |
| --- | --- |
| CN(CCc1ccc2ccccc2c1)CCN1CCCC1 | 2.1 |
| CNCCN(C)CCc1ccc(Cl)c(Cl)c1 | 5.8 |
| CN(CCc1ccccc1)CCN1CCCC1 | 7.4 |
| CCN(CCc1ccc(Cl)c(Cl)c1)CCN1CCCC1 | 0.51 |
| CC(CN(C)CCc1ccc(Cl)c(Cl)c1)N(C)C (stereo unspecified) | 1.5 |
| CCN(CC)CCN(C)CCc1ccc(Cl)c(Cl)c1 | 0.73 |
| CN(C)CCNCCc1ccc(Cl)c(Cl)c1 | 20 |

Next, values leading:

| Ki [nM] | SMILES |
| --- | --- |
| 1.8 | CN(CCCN1CCCC1)CCc1ccc(Cl)c(Cl)c1 |
| 1.4 | C=CCN(CCc1ccc(Cl)c(Cl)c1)CCN1CCCC1 |
| 1.5 | CN(CCc1ccc(Cl)cc1)CCN1CCCC1 |
| 0.38 | CN(CCN1CCCC1)Cc1ccc(Cl)c(Cl)c1 |
